Test results: patent US20060069132A1, “Azolecarboxamide herbicides” (priority 2004, published 2006)
Where two headings read alike, the source gives them in different places.

Columns and labels:
large crabgrass = assay: Test B pre-/postemergence herbicide test; assay type: in vivo, Digitaria sanguinalis; conditions: Digitaria sanguinalis; for pest or weed control at 125 g/ha: 125 g ai/ha; for pest or weed control at 500 g/ha: 500 g ai/ha
Outline: (§1)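 Plants compared with untreated controls 13–15 days post-treatment and given a visual 0–100 injury score. Applications: preemergence to seeds; postemergence at 1- to 4-leaf (2–18 cm); paddy species flooded, 2-leaf stage. Vehicle non-phytotoxic, surfactant included.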

blackgrass = assay: Test B postemergence herbicide test; assay type: in vivo, Alopecurus myosuroides; conditions: Alopecurus myosuroides, post-emergence, 336 h, postemergence, visual rating, scale 0 (no effect) to 100 (complete control), read-out: Blackgrass plant response rating
Outline: (§2)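 Greenhouse test; postemergence application to plants at 1–4 leaves (2–18 cm); paddy species at 2 leaves; evaluated visually vs controls at 13–15 days; scale 0–100 (100 = complete control).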

giant foxtail = assay: Test B pre-/postemergence herbicide test; assay type: in vivo, Setaria faberi; conditions: Setaria faberi, 336 h; for pest or weed control at 125 g/ha: 125 g ai/ha; for pest or weed control at 500 g/ha: 500 g ai/ha
Outline: as §1

velvetleaf = assay: Test B pre-/postemergence herbicide test; assay type: in vivo, Abutilon theophrasti; conditions: Abutilon theophrasti, 336 h; for pest or weed control at 125 g/ha: 125 g ai/ha; for pest or weed control at 500 g/ha: 500 g ai/ha
Outline: as §1

pigweed = assay: Test B pre-/postemergence herbicide test; assay type: in vivo, Amaranthus retroflexus; conditions: Amaranthus retroflexus, post-emergence, 336 h, postemergence, read-out: Pigweed plant response rating
Outline: as §1

[1] = system: small flower umbrella sedge; assay: Test B flooded paddy test; assay type: in vivo, Cyperus difformis; conditions: Cyperus difformis, 336 h, 1000 g ai/ha, scale 0 to 100 (0 no effect, 100 complete control), read-out: Sedge, Umbrella plant response rating
Outline: as §2

morningglory = assay: Test B pre-/postemergence herbicide test; assay type: in vivo, Ipomoea coccinea; conditions: Ipomoea, 336 h; for pest or weed control at 125 g/ha: 125 g ai/ha; for pest or weed control at 500 g/ha: 500 g ai/ha
Outline: (§3)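 Greenhouse pot assay with simultaneous preemergence (treated seed) and postemergence (2–18 cm seedlings) applications of surfactant-containing, non-phytotoxic solvent formulations. Response scored visually 13–15 days later on a 0–100 scale, 100 meaning complete control.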

wheat = assay: Test B postemergence herbicide test; assay type: in vivo, Triticum aestivum; conditions: Triticum aestivum, post-emergence, 336 h, postemergence, read-out: Wheat plant response rating
Outline: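 Each value is a visual 0–100 response rating taken against controls 13 to 15 days after treatment in the greenhouse. Plants received formulated chemical postemergence at the 1- to 4-leaf stage or, in flooded paddy, at the 2-leaf stage.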

Surinam grass = assay: Test B pre-/postemergence herbicide test; assay type: in vivo, Urochloa decumbens; conditions: Urochloa decumbens; for pest or weed control at 125 g/ha: 125 g ai/ha; for pest or weed control at 500 g/ha: 500 g ai/ha
Outline: as §1

cocklebur = assay: Test B pre-/postemergence herbicide test; assay type: in vivo, Xanthium strumarium; conditions: Xanthium strumarium; for pest or weed control at 125 g/ha: 125 g ai/ha; for pest or weed control at 500 g/ha: 500 g ai/ha
Outline: as §3

barnyardgrass [2] = assay: Test B pre-/postemergence herbicide test; assay type: in vivo, Echinochloa crus-galli; conditions: Echinochloa crus-galli; for pest or weed control at 125 g/ha: 125 g ai/ha; for pest or weed control at 500 g/ha: 500 g ai/ha
Outline: as §3

barnyardgrass [3] = assay: Test B flooded paddy test; assay type: in vivo, Echinochloa crus-galli; conditions: Echinochloa crus-galli, 336 h, 1000 g ai/ha, scale 0 to 100 (0 no effect, 100 complete control), read-out: Barnyardgrass plant response rating
Outline: as §2

ducksalad = assay: Test B flooded paddy test; assay type: in vivo, Heteranthera limosa; conditions: Heteranthera limosa, 336 h, 1000 g ai/ha, scale 0 to 100 (0 no effect, 100 complete control), read-out: Ducksalad plant response rating
Outline: as §2

lambsquarters = assay: Test B pre-/postemergence herbicide test; assay type: in vivo, Chenopodium album; conditions: Chenopodium album, 336 h; for pest or weed control at 125 g/ha: 125 g ai/ha
Outline: as §1

rice = assay: Test B flooded paddy test; assay type: in vivo, Oryza sativa; conditions: Oryza sativa, 336 h, 1000 g ai/ha, scale 0 to 100 (0 no effect, 100 complete control), read-out: Rice plant response rating
Outline: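 Formulated test chemicals went onto postemergence plants measuring 2 to 18 cm, at one to four leaves. For the paddy assay, species had reached two leaves. Scoring took place 13–15 days later by eye, relative to untreated plants, using 0 for no effect up to 100 for full control.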

[4] = 125 g ai/ha, visual rating, scale 0 (no effect) to 100 (complete control)
[5] = 500 g ai/ha, scale 0 to 100, 0 is no effect, 100 is complete control
[6] = post-emergence, postemergence, visual rating, scale 0 (no effect) to 100 (complete control), read-out: Cocklebur plant response rating
[7] = post-emergence, postemergence, visual rating, scale 0 (no effect) to 100 (complete control), read-out: Barnyardgrass plant response rating

CCOC(=O)c1ccc(F)c(NC(=O)C2CC(C(C)(C)C)=NN2CC)c1 (centres unmarked) [Compound 267, ethyl 3-[[[3-(1,1-dimethylethyl)-1-ethyl-4,5-dihydro-1H-pyrazol-5-yl]carbonyl]amino]-4-fluorobenzoate]
pest or weed control at 125 g/ha (large crabgrass; post-emergence, postemergence, visual rating, scale 0 (no effect) to 100 (complete control), read-out: Crabgrass, Large plant response rating): 20% | pest or weed control at 500 g/ha (large crabgrass; post-emergence, postemergence, scale 0 to 100, 0 is no effect, 100 is complete control, read-out: Crabgrass, Large plant response rating): 40% | pest or weed control at 125 g/ha (large crabgrass; pre-emergence, 0 = no effect, 100 = complete control, read-out: Crabgrass, Large plant response rating (0 to 100 scale)): 40% | pest or weed control at 500 g/ha (large crabgrass; pre-emergence, visual rating, 0 = no effect, 100 = complete control, read-out: Plant response rating, Crabgrass, Large): 100% | pest or weed control at 125 g/ha (blackgrass; 125 g ai/ha): 20% | pest or weed control at 500 g/ha (blackgrass; 500 g ai/ha): 40% | pest or weed control at 125 g/ha (giant foxtail; post-emergence, postemergence, visual rating, scale 0 (no effect) to 100 (complete control), read-out: Foxtail, Giant plant response rating): 40% | pest or weed control at 500 g/ha (giant foxtail; post-emergence, postemergence, scale 0 to 100, 0 is no effect, 100 is complete control, read-out: Foxtail, Giant plant response rating): 50% | pest or weed control at 125 g/ha (giant foxtail; pre-emergence, 0 = no effect, 100 = complete control, read-out: Foxtail, Giant plant response rating (0 to 100 scale)): 30% | pest or weed control at 500 g/ha (giant foxtail; pre-emergence, visual rating, 0 = no effect, 100 = complete control, read-out: Plant response rating, Foxtail, Giant): 80% | pest or weed control at 125 g/ha (velvetleaf; post-emergence, postemergence, visual rating, scale 0 (no effect) to 100 (complete control), read-out: Velvetleaf plant response rating): 50% | pest or weed control at 500 g/ha (velvetleaf; post-emergence, postemergence, scale 0 to 100, 0 is no effect, 100 is complete control, read-out: Velvetleaf plant response rating): 70% | pest or weed control at 125 g/ha (velvetleaf; pre-emergence, 0 = no effect, 100 = complete control, read-out: Velvetleaf plant response rating (0 to 100 scale)): 20% | pest or weed control at 500 g/ha (velvetleaf; pre-emergence, visual rating, 0 = no effect, 100 = complete control, read-out: Plant response rating, Velvetleaf): 50% | pest or weed control at 125 g/ha (pigweed; [4]): 60% | pest or weed control at 500 g/ha (pigweed; [5]): 90% | pest or weed control at 1000 g/ha [1]: 70% | pest or weed control at 125 g/ha (morningglory; post-emergence, postemergence, visual rating, scale 0 (no effect) to 100 (complete control), read-out: Morningglory plant response rating): 30% | pest or weed control at 500 g/ha (morningglory; post-emergence, postemergence, scale 0 to 100, 0 is no effect, 100 is complete control, read-out: Morningglory plant response rating): 40% | pest or weed control at 125 g/ha (morningglory; pre-emergence, 0 = no effect, 100 = complete control, read-out: Morningglory plant response rating (0 to 100 scale)): 20% | pest or weed control at 500 g/ha (morningglory; pre-emergence, visual rating, 0 = no effect, 100 = complete control, read-out: Plant response rating, Morningglory): 30% | plant injury at 125 g/ha (wheat; [4]): 20% | plant injury at 500 g/ha (wheat; [5]): 30% | pest or weed control at 125 g/ha (Surinam grass; post-emergence, postemergence, visual rating, scale 0 (no effect) to 100 (complete control), read-out: Surinam Grass plant response rating): 30% | pest or weed control at 500 g/ha (Surinam grass; post-emergence, postemergence, scale 0 to 100, 0 is no effect, 100 is complete control, read-out: Surinam Grass plant response rating): 50% | pest or weed control at 125 g/ha (Surinam grass; pre-emergence, 0 = no effect, 100 = complete control, read-out: Surinam Grass plant response rating (0 to 100 scale)): 10% | pest or weed control at 500 g/ha (Surinam grass; pre-emergence, visual rating, 0 = no effect, 100 = complete control, read-out: Plant response rating, Surinam Grass): 50% | pest or weed control at 125 g/ha (cocklebur; [6]): 30% | pest or weed control at 500 g/ha (cocklebur; [6]): 90% | pest or weed control at 125 g/ha (cocklebur; pre-emergence, 0 = no effect, 100 = complete control, read-out: Cocklebur plant response rating (0 to 100 scale)): 0% | pest or weed control at 500 g/ha (cocklebur; pre-emergence, visual rating, 0 = no effect, 100 = complete control, read-out: Plant response rating, Cocklebur): 0% | pest or weed control at 125 g/ha (barnyardgrass [2]; [7]): 40% | pest or weed control at 500 g/ha (barnyardgrass [2]; [7]): 90% | pest or weed control at 125 g/ha (barnyardgrass [2]; pre-emergence, 0 = no effect, 100 = complete control, read-out: Barnyardgrass plant response rating (0 to 100 scale)): 20% | pest or weed control at 500 g/ha (barnyardgrass [2]; pre-emergence, visual rating, 0 = no effect, 100 = complete control, read-out: Plant response rating, Barnyardgrass): 70% | pest or weed control at 1000 g/ha (barnyardgrass [3]): 60% | pest or weed control at 1000 g/ha (ducksalad): 0% | pest or weed control at 125 g/ha (lambsquarters; post-emergence, postemergence, visual rating, scale 0 (no effect) to 100 (complete control), read-out: Lambsquarters plant response rating): 30% | pest or weed control at 500 g/ha (lambsquarters; post-emergence, postemergence, 500 g ai/ha, scale 0 to 100, 0 is no effect, 100 is complete control, read-out: Lambsquarters plant response rating): 50% | pest or weed control at 125 g/ha (lambsquarters; pre-emergence, 0 = no effect, 100 = complete control, read-out: Lambsquarters plant response rating (0 to 100 scale)): 0% | plant injury at 1000 g/ha (rice): 70%
